What was measured:
[1] = system: KB tumor xenografts (FR+); experiment: Ex vivo biodistribution in nude mice bearing KB tumor xenografts; conditions: 120 min p.i., ± SEM
[2] = molecular target: FR (folate receptor) on KB cells (Homo sapiens, UniProt P15328); experiment: Relative binding affinity: inhibition of 3H-folate binding to cultured KB cells; conditions: read-out: mean IC50 (relative binding affinity, block of 3H-folic acid binding), 10 nM 3H-folate, 1 h, 37 °C
FR (folate receptor) on KB cells, sequence (P15328 25-257): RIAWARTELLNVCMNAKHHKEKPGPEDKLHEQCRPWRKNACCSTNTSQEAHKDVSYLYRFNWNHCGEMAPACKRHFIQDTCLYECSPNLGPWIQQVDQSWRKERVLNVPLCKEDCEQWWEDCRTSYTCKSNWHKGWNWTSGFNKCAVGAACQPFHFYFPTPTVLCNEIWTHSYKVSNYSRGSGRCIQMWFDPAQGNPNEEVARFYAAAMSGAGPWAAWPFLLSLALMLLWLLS

## [NH-][C@@H](CNC(=O)CC[C@@H](NC(=O)c1ccc(NCc2cnc3nc(N)[nH]c(=O)c3n2)cc1)C(=O)O)C(=O)[N-][C@@H](CC(=O)O)C(=O)[N-][C@@H](C[S-])C(=O)O.[O]=[Tc+4] [^99mTc-EC20]
[1]; Control
  Biodistribution: Blood: 0.3 ± 0.01 %ID/g
  Biodistribution: Heart: 1.9 ± 0.1 %ID/g
  Biodistribution: KB Tumor: 10.9 ± 0.6 %ID/g
  Biodistribution: Kidney: 113.0 ± 3.6 %ID/g
  Biodistribution: Liver: 4.1 ± 0.3 %ID/g
  Biodistribution: Lung: 2.1 ± 0.1 %ID/g
  Biodistribution: Muscle: 1.2 ± 0.04 %ID/g
  Biodistribution: Plasma: 0.5 ± 0.03 %ID/g
  Biodistribution: Spleen: 0.8 ± 0.1 %ID/g
  KB Tumor/Blood ratio: 41.5 ± 2.2
  KB Tumor/Kidney ratio: 0.1 ± 0.01
  KB Tumor/Liver ratio: 3.1 ± 0.3
[1]; FA Block (100 μg folic acid)
  Biodistribution: Blood: 0.3 ± 0.1 %ID/g
  Biodistribution: Heart: 0.1 ± 0.02 %ID/g
  Biodistribution: KB Tumor: 0.9 ± 0.1 %ID/g
  Biodistribution: Kidney: 6.7 ± 1.6 %ID/g
  Biodistribution: Liver: 2.5 ± 0.5 %ID/g
  Biodistribution: Lung: 0.8 ± 0.2 %ID/g
  Biodistribution: Muscle: 0.1 ± 0.02 %ID/g
  Biodistribution: Plasma: 0.5 ± 0.1 %ID/g
  Biodistribution: Spleen: 0.5 ± 0.2 %ID/g
  KB Tumor/Blood ratio: 2.9 ± 0.4
  KB Tumor/Kidney ratio: 0.1 ± 0.02
  KB Tumor/Liver ratio: 0.4 ± 0.1

## Nc1nc2ncc(CNc3ccc(C(=O)N[C@@H](CCC(=O)NCCOCCOCCNC(=O)CN4CCN(CC(=O)O)CCN(CC(=O)O)CC4)C(=O)O)cc3)nc2c(=O)[nH]1 [folate-NOTA]
[2]
  IC50: 18.7 nM
